Results reported in patent US8952024B2, “Herbicidal pyrimidone derivatives” (E I du Pont de Nemours and Company, priority 2009, dated 2015).

Assays:
Assay type in all cases: in vivo
[1] = test system: windgrass (Apera spica-venti); test: Test B postemergence plant response; details: Postemergence; for Plant response rating, Windgrass: scale 0 (no effect) to 100 (complete control)
Procedure, shortened: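 Plants at the 1- to 4-leaf stage (2 to 18 cm tall), grown in pots of peat moss/vermiculite medium with wetting agent and starter nutrients, received postemergence applications of test chemicals. After 13 to 15 days in a greenhouse, injury was rated visually against untreated controls on a 0 (no effect) to 100 (complete control) scale.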

[2] = test system: barnyardgrass (Echinochloa crus-galli); test: Test B flooded paddy test; details: for Plant response rating, Flood, Barnyardgrass: 250 g ai/ha, flooded paddy test, visual rating on 0 to 100 scale (0 no effect, 100 complete control) after 13 to 15 days; for Plant response rating, Barnyardgrass: Flood (flooded paddy test), 13 to 15 days
Procedure, shortened: (§1)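 Ratings are visual, 0–100 (100 = complete control), taken versus untreated controls 13 to 15 days after treatment in the greenhouse. Compound went straight into paddy water held 3 cm above soil, applied to 2-leaf-stage plants of four species.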

[3] = test system: rice (Oryza sativa); test: Test B flooded paddy test; details: for Plant response rating, Flood, Rice: 250 g ai/ha, flooded paddy test, visual rating on 0 to 100 scale (0 no effect, 100 complete control) after 13 to 15 days; for Plant response rating, Rice: Flood (flooded paddy test), 13 to 15 days
Procedure, shortened: as §1

[4] = test system: ducksalad (Heteranthera limosa); test: Test B flooded paddy test; details: for Plant response rating, Flood, Ducksalad: 250 g ai/ha, flooded paddy test, visual rating on 0 to 100 scale (0 no effect, 100 complete control) after 13 to 15 days; for Plant response rating, Ducksalad: Flood (flooded paddy test), 13 to 15 days
Procedure, shortened: as §1

[5] = test system: umbrella sedge (Cyperus difformis); test: Test B flooded paddy test; details: for Plant response rating, Flood, Sedge, Umbrella: 250 g ai/ha, flooded paddy test, visual rating on 0 to 100 scale (0 no effect, 100 complete control) after 13 to 15 days; for Plant response rating, Sedge, Umbrella: Flood (flooded paddy test), 13 to 15 days
Procedure, shortened: as §1

[6] = test system: wheat (Triticum aestivum); test: Test A pre-/postemergence plant response
Procedure, shortened: (§2)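 Visual injury rating on a 0–100 scale (0 = no effect, 100 = complete control) was made versus untreated controls after about ten days in the greenhouse. Compounds, formulated in a non-phytotoxic solvent mix containing surfactant, were sprayed preemergence onto loam/sand soil and postemergence onto one- to two-leaf plants.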

[7] = test system: velvetleaf (Abutilon theophrasti); test: Test A pre-/postemergence plant response
Procedure, shortened: as §2

[8] = test system: large crabgrass (Digitaria sanguinalis); test: Test A pre-/postemergence plant response
Procedure, shortened: as §2

[9] = test system: corn (Zea mays); test: Test A pre-/postemergence plant response
Procedure, shortened: as §2

[10] = test system: morningglory (Ipomoea spp.); test: Test A pre-/postemergence plant response
Procedure, shortened: as §2

[11] = test system: barnyardgrass (Echinochloa crus-galli); test: Test A pre-/postemergence plant response
Procedure, shortened: as §2

[12] = test system: giant foxtail (Setaria faberii); test: Test A pre-/postemergence plant response
Procedure, shortened: as §2

[13] = test system: pigweed (Amaranthus retroflexus); test: Test A pre-/postemergence plant response
Procedure, shortened: as §2

[14] = 125 g ai/ha, visual rating after 13 to 15 days
[15] = 62 g ai/ha, scale 0 to 100, 0 is no effect, 100 is complete control
[16] = Postemergence, 125 g ai/ha, visual injury, 0 to 100 scale (0 no effect, 100 complete control), approx. ten days
[17] = Postemergence, 500 g ai/ha, 0 to 100 scale, 0 = no effect, 100 = complete control, approx. ten days
[18] = Preemergence, 125 g ai/ha, 0 to 100 scale, 0 = no effect, 100 = complete control
[19] = Preemergence, 500 g ai/ha, visual injury, 0 to 100 scale (0 no effect, 100 complete control), approx. ten days
[20] = 31 g ai/ha, scale of 0 to 100 where 0 is no effect and 100 is complete control
[21] = 125 g ai/ha, scale 0 to 100, 0 is no effect, 100 is complete control

Structure (SMILES): Cc1ccc(C)c(-n2c(-c3ccccc3)ncc(C(=O)C3=C(O)CCCC3=O)c2=O)c1 [Compound 29]
- Plant response rating, Windgrass ([1]; 62 g ai/ha, 13 to 15 days): 10
- Plant response rating, Windgrass [1, 14]: 30
- Windgrass plant response rating ([1]; 250 g ai/ha, scale 0 to 100): 50
- Plant response rating, Flood, Barnyardgrass [2]: 30
- Plant response rating, Barnyardgrass [2, 15]: 0
- Plant response rating, Flood, Rice [3]: 0
- Plant response rating, Rice [3, 15]: 0
- Plant response rating, Flood, Ducksalad [4]: 85
- Plant response rating, Ducksalad [4, 15]: 70
- Plant response rating, Flood, Sedge, Umbrella [5]: 80
- Plant response rating, Sedge, Umbrella [5, 15]: 70
- Wheat plant response rating [6, 16]: 0
- Plant response rating, Wheat [6, 17]: 0
- Plant response rating, Wheat [6, 18]: 0
- Plant response rating, Wheat [6, 19]: 0
- Velvetleaf plant response rating [7, 16]: 100
- Plant response rating, Velvetleaf [7, 17]: 100
- Plant response rating, Velvetleaf [7, 18]: 20
- Plant response rating, Velvetleaf [7, 19]: 100
- Crabgrass, Large plant response rating [8, 16]: 70
- Plant response rating, Crabgrass, Large [8, 17]: 90
- Plant response rating, Crabgrass, Large [8, 18]: 20
- Plant response rating, Crabgrass, Large [8, 19]: 100
- Corn plant response rating [9, 16]: 0
- Plant response rating, Corn [9, 17]: 10
- Plant response rating, Corn [9, 18]: 0
- Plant response rating, Corn [9, 19]: 0
- Morningglory plant response rating [10, 16]: 60
- Plant response rating, Morningglory [10, 17]: 90
- Plant response rating, Morningglory [10, 18]: 40
- Plant response rating, Morningglory [10, 19]: 80
- Barnyardgrass plant response rating [11, 16]: 20
- Plant response rating, Barnyardgrass [11, 17]: 90
- Plant response rating, Barnyardgrass [11, 18]: 0
- Plant response rating, Barnyardgrass [11, 19]: 100
- Foxtail, Giant plant response rating [12, 16]: 70
- Plant response rating, Foxtail, Giant [12, 17]: 90
- Plant response rating, Foxtail, Giant [12, 18]: 30
- Plant response rating, Foxtail, Giant [12, 19]: 100
- Pigweed plant response rating [13, 16]: 80
- Plant response rating, Pigweed [13, 17]: 100
- Plant response rating, Pigweed [13, 18]: 50
- Plant response rating, Pigweed [13, 19]: 100

Structure (SMILES): O=C1CCCC(O)=C1C(=O)c1cnc(-c2cccc(Cl)c2)n(-c2ccccc2)c1=O [Compound 34]
- Plant response rating, Windgrass ([1]; 62 g ai/ha, 13 to 15 days): 40
- Plant response rating, Windgrass [1, 14]: 50
- Plant response rating, Flood, Barnyardgrass [2]: 0
- Plant response rating, Barnyardgrass [2, 20]: 0
- Plant response rating, Barnyardgrass [2, 15]: 0
- Plant response rating, Barnyardgrass [2, 21]: 0
- Plant response rating, Flood, Rice [3]: 0
- Plant response rating, Rice [3, 20]: 0
- Plant response rating, Rice [3, 15]: 0
- Plant response rating, Rice [3, 21]: 0
- Plant response rating, Flood, Ducksalad [4]: 65
- Plant response rating, Ducksalad [4, 20]: 0
- Plant response rating, Ducksalad [4, 15]: 0
- Plant response rating, Ducksalad [4, 21]: 30
- Plant response rating, Flood, Sedge, Umbrella [5]: 40
- Plant response rating, Sedge, Umbrella [5, 20]: 0
- Plant response rating, Sedge, Umbrella [5, 15]: 0
- Plant response rating, Sedge, Umbrella [5, 21]: 0
- Wheat plant response rating [6, 16]: 0
- Plant response rating, Wheat [6, 17]: 30
- Plant response rating, Wheat [6, 18]: 0
- Plant response rating, Wheat [6, 19]: 0
- Velvetleaf plant response rating [7, 16]: 100
- Plant response rating, Velvetleaf [7, 17]: 100
- Plant response rating, Velvetleaf [7, 18]: 50
- Plant response rating, Velvetleaf [7, 19]: 100
- Crabgrass, Large plant response rating [8, 16]: 90
- Plant response rating, Crabgrass, Large [8, 17]: 100
- Plant response rating, Crabgrass, Large [8, 18]: 90
- Plant response rating, Crabgrass, Large [8, 19]: 100
- Corn plant response rating [9, 16]: 0
- Plant response rating, Corn [9, 17]: 30
- Plant response rating, Corn [9, 18]: 0
- Plant response rating, Corn [9, 19]: 0
- Morningglory plant response rating [10, 16]: 80
- Plant response rating, Morningglory [10, 17]: 100
- Plant response rating, Morningglory [10, 18]: 10
- Plant response rating, Morningglory [10, 19]: 60
- Barnyardgrass plant response rating [11, 16]: 90
- Plant response rating, Barnyardgrass [11, 17]: 100
- Plant response rating, Barnyardgrass [11, 18]: 10
- Plant response rating, Barnyardgrass [11, 19]: 100
- Foxtail, Giant plant response rating [12, 16]: 90
- Plant response rating, Foxtail, Giant [12, 17]: 100
- Plant response rating, Foxtail, Giant [12, 18]: 60
- Plant response rating, Foxtail, Giant [12, 19]: 100
- Pigweed plant response rating [13, 16]: 100
- Plant response rating, Pigweed [13, 17]: 100
- Plant response rating, Pigweed [13, 18]: 90
- Plant response rating, Pigweed [13, 19]: 100

Structure (SMILES): O=C1CCCC(O)=C1C(=O)c1cnc(-c2ccccc2)n(-c2ccccc2Br)c1=O [Compound 37]
- Plant response rating, Windgrass ([1]; 62 g ai/ha, 13 to 15 days): 30
- Plant response rating, Windgrass [1, 14]: 50
- Plant response rating, Flood, Barnyardgrass [2]: 0
- Plant response rating, Barnyardgrass [2, 20]: 0
- Plant response rating, Barnyardgrass [2, 15]: 0
- Plant response rating, Barnyardgrass [2, 21]: 0
- Plant response rating, Flood, Rice [3]: 20
- Plant response rating, Rice [3, 20]: 0
- Plant response rating, Rice [3, 15]: 0
- Plant response rating, Rice [3, 21]: 0
- Plant response rating, Flood, Ducksalad [4]: 60
- Plant response rating, Ducksalad [4, 20]: 0
- Plant response rating, Ducksalad [4, 15]: 30
- Plant response rating, Ducksalad [4, 21]: 50
- Plant response rating, Flood, Sedge, Umbrella [5]: 40
- Plant response rating, Sedge, Umbrella [5, 20]: 0
- Plant response rating, Sedge, Umbrella [5, 15]: 20
- Plant response rating, Sedge, Umbrella [5, 21]: 30
- Wheat plant response rating [6, 16]: 0
- Plant response rating, Wheat [6, 17]: 0
- Plant response rating, Wheat [6, 18]: 0
- Plant response rating, Wheat [6, 19]: 0
- Velvetleaf plant response rating [7, 16]: 100
- Plant response rating, Velvetleaf [7, 17]: 100
- Plant response rating, Velvetleaf [7, 18]: 50
- Plant response rating, Velvetleaf [7, 19]: 90
- Crabgrass, Large plant response rating [8, 16]: 70
- Plant response rating, Crabgrass, Large [8, 17]: 100
- Plant response rating, Crabgrass, Large [8, 18]: 10
- Plant response rating, Crabgrass, Large [8, 19]: 50
- Corn plant response rating [9, 16]: 0
- Plant response rating, Corn [9, 17]: 40
- Plant response rating, Corn [9, 18]: 0
- Plant response rating, Corn [9, 19]: 0
- Morningglory plant response rating [10, 16]: 80
- Plant response rating, Morningglory [10, 17]: 100
- Plant response rating, Morningglory [10, 18]: 0
- Plant response rating, Morningglory [10, 19]: 30
- Barnyardgrass plant response rating [11, 16]: 50
- Plant response rating, Barnyardgrass [11, 17]: 90
- Plant response rating, Barnyardgrass [11, 18]: 0
- Plant response rating, Barnyardgrass [11, 19]: 30
- Foxtail, Giant plant response rating [12, 16]: 70
- Plant response rating, Foxtail, Giant [12, 17]: 90
- Plant response rating, Foxtail, Giant [12, 18]: 10
- Plant response rating, Foxtail, Giant [12, 19]: 50
- Pigweed plant response rating [13, 16]: 100
- Plant response rating, Pigweed [13, 17]: 100
- Plant response rating, Pigweed [13, 18]: 50
- Plant response rating, Pigweed [13, 19]: 100
